From patent publication US11760722B2 (priority 2022, dated 2023)
Several values for one entry are separate records, joined by “and”; a condition that tells them apart may be missing. Equal values may be shown once. Read-outs that look alike come from different tables or passages of the source.

Assays:
[1] = test system: SARS-CoV-2 replicon; assay: microbe, parasite or virus in culture; format: cell-based; details: read-out: Replicon EC50
[2] = test system: human coronavirus (HCoV) 229E; assay: microbe, parasite or virus in culture; format: cell-based, human coronavirus 229E; details: MRCS cells, HCoV 229E, 3 days, CellTiter Glo, read-out: 229E CPE EC50
[3] = Severe acute respiratory syndrome coronavirus 2, Huh-7, 24 h
[4] = unidentified human coronavirus, 72 h

CC(C)(C)[C@H](NS(=O)(=O)c1cccc(F)c1)C(=O)N1C[C@H]2[C@@H]([C@H]1C(=O)N[C@H](C#N)C[C@@H]1CCNC1=O)C2(C)C [Compound 79]
EC50 [1, 3]: 0.081 µM | EC50 [1]: 0.14 µM | EC50 [2]: 0.266 µM | EC50 [2, 4]: 0.256 µM

CC(C)(C)[C@H](NC(=O)C(F)(F)C(F)(F)Cl)C(=O)N1C[C@H]2[C@@H]([C@H]1C(=O)N[C@H](C#N)C[C@@H]1CCNC1=O)C2(C)C [Compound 80]
EC50 [1, 3]: 0.0065 µM | EC50 [1]: 0.013 µM | EC50 [2]: 0.116 µM | EC50 [2, 4]: 0.092 µM

CC(C)(C)[C@H](NC(=O)C12CC(C(F)(F)F)(C1)C2)C(=O)N1C[C@H]2[C@@H]([C@H]1C(=O)N[C@H](C#N)C[C@@H]1CCNC1=O)C2(C)C [Compound 81]
EC50 [1, 3]: 1.99 µM | EC50 [2, 4]: 6.86 µM

CC(C)(C)[C@H](NS(=O)(=O)c1ccc2c(c1)CCO2)C(=O)N1C[C@H]2[C@@H]([C@H]1C(=O)N[C@H](C#N)C[C@@H]1CCNC1=O)C2(C)C [Compound 83]
EC50 [1, 3]: 0.044 µM | EC50 [1]: 0.072 µM | EC50 [2]: 1.06 µM | EC50 [2, 4]: 0.838 µM

C=CS(=O)(=O)N[C@H](C(=O)N1C[C@H]2[C@@H]([C@H]1C(=O)N[C@H](C#N)C[C@@H]1CCNC1=O)C2(C)C)C(C)(C)C [Compound 84]
EC50 [1, 3]: 0.29 µM | EC50 [2, 4]: 0.91 µM

CC(C)(C)[C@H](NS(=O)(=O)C[C@@]12CC[C@@H](CC1=O)C2(C)C)C(=O)N1C[C@H]2[C@@H]([C@H]1C(=O)N[C@H](C#N)C[C@@H]1CCNC1=O)C2(C)C [Compound 86]
EC50 [1, 3]: 4.02 µM | EC50 [2, 4]: 9.63 µM

CC(C)(C)NC(=O)N[C@H](C(=O)N1C[C@H]2[C@@H]([C@H]1C(=O)N[C@H](C#N)C[C@@H]1CCNC1=O)C2(C)C)C(C)(C)C [Compound 87]
EC50 [1, 3]: 0.45 µM | EC50 [1]: 0.8 µM | EC50 [2]: 14 µM | EC50 [2, 4]: 9.07 µM

CC(C#N)C(=O)N[C@H](C(=O)N1C[C@H]2[C@@H]([C@H]1C(=O)N[C@H](C#N)C[C@@H]1CCNC1=O)C2(C)C)C(C)(C)C (some centres unmarked) [Compound 88]
EC50 [1, 3]: 0.19 µM | EC50 [1]: 0.25 µM | EC50 [2]: 4.56 µM | EC50 [2, 4]: 2.5 µM

CC(C)(C)[C@H](NS(=O)(=O)c1ccc(OC(F)(F)F)cc1)C(=O)N1C[C@H]2[C@@H]([C@H]1C(=O)N[C@H](C#N)C[C@@H]1CCNC1=O)C2(C)C [Compound 89]
EC50 [1, 3]: 0.14 µM | EC50 [1]: 0.16 µM | EC50 [2]: 0.468 µM | EC50 [2, 4]: 0.322 µM

CC(C)(C)[C@H](NS(=O)(=O)c1ccc(C(F)(F)F)cc1)C(=O)N1C[C@H]2[C@@H]([C@H]1C(=O)N[C@H](C#N)C[C@@H]1CCNC1=O)C2(C)C [Compound 90]
EC50 [1]: 0.067 µM and 0.076 µM | EC50 [2]: 0.387 µM | EC50 [2, 4]: 0.254 µM

CC1(C)[C@@H]2[C@@H](C(=O)N[C@H](C#N)C[C@@H]3CCNC3=O)N(C(=O)[C@@H](NC(=O)C(F)(F)F)C34CC(C(F)(F)F)(C3)C4)C[C@@H]21 [Compound 91]
EC50 [1, 3]: 0.33 µM | EC50 [2, 4]: 10.9 µM

C=C(C(=O)N[C@H](C(=O)N1C[C@H]2[C@@H]([C@H]1C(=O)N[C@H](C#N)C[C@@H]1CCNC1=O)C2(C)C)C(C)(C)C)C(F)(F)F [Compound 92]
EC50 [1, 3]: 1.76 µM | EC50 [2, 4]: 17.1 µM

CC(C)(C)[C@H](NS(=O)(=O)c1ccc(F)s1)C(=O)N1C[C@H]2[C@@H]([C@H]1C(=O)N[C@H](C#N)C[C@@H]1CCNC1=O)C2(C)C [Compound 113]
EC50 [2, 4]: 0.388 µM

CC(C)(C)[C@H](NS(=O)(=O)c1sccc1Cl)C(=O)N1C[C@H]2[C@@H]([C@H]1C(=O)N[C@H](C#N)C[C@@H]1CCNC1=O)C2(C)C [Compound 114]
EC50 [2]: 0.133 µM | EC50 [2, 4]: 0.067 µM

Cc1ccc(S(=O)(=O)N[C@H](C(=O)N2C[C@H]3[C@@H]([C@H]2C(=O)N[C@H](C#N)C[C@@H]2CCNC2=O)C3(C)C)C(C)(C)C)s1 [Compound 118]
EC50 [2, 4]: 0.322 µM

CC(C)(C)[C@H](NS(=O)(=O)c1ccc(C2CC2)cc1)C(=O)N1C[C@H]2[C@@H]([C@H]1C(=O)N[C@H](C#N)C[C@@H]1CCNC1=O)C2(C)C [Compound 121]
EC50 [2]: 0.066 µM | EC50 [2, 4]: 0.056 µM

COc1ccsc1S(=O)(=O)N[C@H](C(=O)N1C[C@H]2[C@@H]([C@H]1C(=O)N[C@H](C#N)C[C@@H]1CCNC1=O)C2(C)C)C(C)(C)C [Compound 127]
EC50 [2, 4]: 0.711 µM

CC(C)(C)[C@H](NC(=O)C(F)(F)C(F)(F)C(F)(F)F)C(=O)N1C[C@H]2[C@@H]([C@H]1C(=O)N[C@H](C#N)C[C@@H]1CCNC1=O)C2(C)C [Compound 133]
EC50 [2]: 0.16 µM and 0.164 µM | EC50 [2, 4]: 0.122 µM

COc1ccc(S(=O)(=O)N(C)[C@H](C(=O)N2C[C@H]3[C@@H]([C@H]2C(=O)N[C@H](C#N)C[C@@H]2CCNC2=O)C3(C)C)C(C)(C)C)cc1 [Compound 137]
EC50 [2, 4]: 4.84 µM
